This note sets out measurements from PMC3440873 (Bioorganic & medicinal chemistry letters, 2011).

Data set [1] has as its system MDA-MB-231 breast adenocarcinoma cells. Conditions: MDA-MB-231 cells; for TRAIL sensitizing activity: compound 4 h, then TRAIL 20 h (Fig. 4).
A further data set has as its target BIR2 domain of XIAP (Homo sapiens, UniProt P98170). The conditions noted are these: from Ki values.

BIR2 domain of XIAP, sequence (P98170 124-240 limits assumed): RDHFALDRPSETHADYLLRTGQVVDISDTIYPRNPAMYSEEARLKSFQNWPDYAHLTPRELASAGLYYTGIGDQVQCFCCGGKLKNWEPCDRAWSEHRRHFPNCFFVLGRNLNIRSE

For `CN[C@@H](C)C(=O)N[C@H](C(=O)N1CCC[C@H]1C(=O)N[C@@H]1CCCc2ccccc21)C(C)C` [Compound 9f], the TRAIL sensitizing activity result in data set [1] is given as “strong TRAIL sensitizing activity”.

In the case of `CN[C@@H](C)C(=O)N[C@H](C(=O)N1CCC[C@H]1C(=O)NNc1ccccc1)C(C)C` [Compound 9j], in data set [1], the TRAIL sensitizing activity result was “slightly less potent”. In addition, the “selectivity for BIR2 vs. BIR3” value at BIR2 domain of XIAP is on record as “three-fold selective”.

As to “TRAIL: apoptosis-inducing agent added to MDA-MB-231 cells at varying concentrations”, in data set [1] (TRAIL alone), the “LD50 of TRAIL” value is recorded as “could not be achieved”.
